Patent publication US20260184700A1, “PDK1 REGULATORY COMPOUND AND COMPOSITION CONTAINING THE SAME” (PROVIBIO CO., LTD., priority 2024, published 2026)

How the values were obtained:
[1] = system: Collagen I in human lung fibroblasts MRC-5; test: TGF-β-induced Collagen I expression in MRC-5 cells, Western blot; assay type: cell-based; settings: MRC-5, TGF-β (5 ng/ml), GO88 0.5 μM and 1 μM, 24 hours
Description: To confirm that the compound of the present invention directly acts on fibrosis-related mechanisms, in vitro experiments were performed using human lung fibroblasts MRC-5 cell lines (Korea Cell Bank).
First, MRC-5 cells were seeded at 5×10^3 cells per well in a 6-well plate and stabilized for 24 hours.
Subsequently, experimental groups were established, including a control group, a group treated with TGF-β (5 ng/ml) alone, and groups treated with TGF-β and the compound GO88 from the present invention at concentrations of 0.5 μM and 1 μM, respectively.
After treating each group with the drugs for 24 hours, the cell medium was removed, and the cells were washed twice with cold PBS. Then, RIPA lysis buffer containing phosphatase inhibitor and protease inhibitor was added to each group to extract proteins.
The extracted proteins were incubated at 4° C. for 30 minutes, then centrifuged at 13,000 rpm for 15 minutes, and the supernatant was collected. The total protein concentration was measured using the BCA protein quantification method.
Subsequently, the proteins were separated by SDS-PAGE, transferred to a PVDF membrane, and Western blot analysis was performed.
The expression levels of Collagen I, a marker related to pulmonary fibrosis, were confirmed, with GAPDH used as an internal control.

[2] = target: T1, full-length (PDK1-FL) protein of human-derived PDK1 (Homo sapiens, UniProt O15530); test: Microscale Thermophoresis (MST) binding, full-length PDK1; settings: Kd ratio
T1 construct: the full-length (PDK1-FL) protein of human-derived PDK1; inferred from the Ni-NTA purification; made in house; host or cells: Sf9 insect cells, baculovirus
T1 sequence (O15530 1-556): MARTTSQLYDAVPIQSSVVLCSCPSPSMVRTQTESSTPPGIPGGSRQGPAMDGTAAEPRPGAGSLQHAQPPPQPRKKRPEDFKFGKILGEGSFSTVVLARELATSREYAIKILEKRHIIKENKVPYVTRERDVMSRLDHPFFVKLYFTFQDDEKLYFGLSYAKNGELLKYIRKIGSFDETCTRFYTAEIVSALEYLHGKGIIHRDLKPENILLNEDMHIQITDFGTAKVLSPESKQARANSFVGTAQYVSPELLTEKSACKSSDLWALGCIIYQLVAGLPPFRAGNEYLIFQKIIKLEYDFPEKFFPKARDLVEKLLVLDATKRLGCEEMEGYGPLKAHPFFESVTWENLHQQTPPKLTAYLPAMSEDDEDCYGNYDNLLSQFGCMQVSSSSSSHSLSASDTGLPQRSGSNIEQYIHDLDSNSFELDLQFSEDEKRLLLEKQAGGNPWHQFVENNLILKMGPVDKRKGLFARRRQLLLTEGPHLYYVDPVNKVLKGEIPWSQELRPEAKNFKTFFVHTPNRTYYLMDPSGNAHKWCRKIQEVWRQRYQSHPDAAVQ
Description: Microscale Thermophoresis (MST) analysis was performed to quantitatively measure the binding affinity between PDK1 protein and substrate peptides (PDKTide) or the company-developed low-molecular-weight compound (GO88).
The target proteins were the full-length (PDK1-FL) protein of human-derived PDK1 and the Protein Kinase Domain (PKD) fragment, which were expressed using a baculovirus expression system in insect cell lines (Sf9).
The purity of the purified proteins was confirmed by SDS-PAGE and Coomassie Brilliant Blue staining.
The purified protein was labeled with a fluorescent label using the Monolith NT™ RED-NHS Protein Fluorescent Labeling Kit (NanoTemper).
Specifically, 20 μM of the protein was dissolved in PBS (pH 7.4) buffer, mixed with the fluorescent reagent, and reacted at room temperature under dark conditions for 30 minutes. The mixture was then buffered with MST analysis buffer (50 mM HEPES, 150 mM NaCl, 1 mM DTT, 0.05% Tween-20, pH 7.5). […]
The reaction samples were injected into an MST-specific capillary (NanoTemper) and analyzed using a Monolith NT.115 device (NanoTemper) under laser intensity conditions. […]
The measured data were analyzed using MO.Affinity Analysis software (NanoTemper), and the dissociation constant (Kd) was calculated from the binding curve.

[3] = system: Human Melanoma cancer cell, Malme-3M; test: Relative cell viability, CCK-8, Malme-3M; assay type: cell-based; settings: 48 hours
Description: Human-derived breast cancer cell line MCF-7, human-derived lung cancer cell line A549, human-derived colorectal cancer cell line HCT-116, human pancreatic cancer cell line AsPC-1, glioblastoma cell line A172, and melanoma cell line Malme-3M were obtained from the Korean Cell Bank. gastric cancer cell line SNU-719, and bladder cancer cell line T24 were cultured in RPMI-1640 medium containing 10% FBS.
Following stabilization, the cells were harvested using Trypsin-EDTA treatment, centrifuged at 1,200 rpm for 3 minutes, the supernatant was removed, and the cells were resuspended in the same medium. They were then seeded into a 96-well plate (Costar 96-well cell culture plate, Corning) at 100 μL per well, and the conditions were adjusted as indicated in Table 5.
The cells were cultured in a 5% CO2 incubator at 37° C. for 24 hours, and after stabilization of the cells, each plate was washed with 200 μL of PBS per well and treated with 50 μL of culture medium per well.
After that, 10 μL of CCK-8 was added to each well, and the plate was incubated again at 37° C. in a 5% CO2 incubator for 2 hours.
In other words, when the survival rate of untreated cells (DMSO) is set at 100%, the relative cell survival rate in each group treated with the drug at different concentrations is indicated.

Structure (SMILES) | protein expression of Collagen I [1] | binding affinity of full-length PDK1 compared to the PDK fragment [2] | Relative cell viability (%) ([3]; 1 μM) | Relative cell viability (%) ([3]; 10 μM) | Relative cell viability (%) ([3]; 30 μM) | Relative cell viability (%) ([3]; 50 μM)
Nc1ncccc1C(=O)NCCCCCCCCCCCCN1CCNCC1 [Compound 14, 2-Amino-N-(12-(piperazin-1-yl)dodecyl)nicotinamide] | inhibited in a concentration-dependent manner | six times stronger binding affinity |  |  |  | 
CC1(C)CN(CCCCCCCCCCCCC(=O)Nc2nc(N)c3[nH]cnc3n2)CCO1 [Compound 11, 12-[4-(2,2-dimethylmorpholin-4-yl)]dodecyl-N-(6-aminopurine-2-yl)carboxamide] |  |  | 44.06 | 37.40 | 36.80 | 38.87
